Consider seven compounds from PubChem BioAssay AID248 (DTP/NCI, 2004).

Values joined by “and” are separate entries in the source; they are usually repeats but may differ in a detail not shown here. Equal values may be shown once. Inconclusive results and toxic doses are left out.

The subject of the experiment is L1210 leukemia ip in BDF1 mice, survival T/C. Briefly: NCI In Vivo Anticancer Drug Screen. Data for tumor model L1210 Leukemia (intraperitoneal) in B6D2F1 (BDF1) mice. The conditions noted are these: endpoint: mean survival time, higher = longer survival. An outline of the steps:
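Antitumor effect is assessed in tumor-bearing animals. Survival in the compound arm is compared with a vehicle-dosed control arm and expressed as their quotient.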

For `COc1cc2c3c(c4ccc(OC)c(OC)c4c2cc1OC)CN1CCC[C@@H]1C3`, the T/C was 103 % of control (dose: 1.25 mg/kg/injection, schedule: Q01DX Z (im), vehicle: water); 103 % of control (dose: 1.25 mg/kg/injection, schedule: Q01DX Z (ip), vehicle: water); 106 % of control (dose: 1.25 mg/kg/injection, schedule: Q01DX Z (sc), vehicle: water); 105 % of control (dose: 1.25 mg/kg/injection, schedule: Q02DX Z (ip), vehicle: water); 111 % of control (dose: 2.2 mg/kg/injection, schedule: Q01DX Z (ip), vehicle: carboxymethylcellulose (CMC)); 107 % of control (dose: 2.2 mg/kg/injection, schedule: Q01DX Z (ip), vehicle: other). Also, the T/C is, setting by setting: (dose: 2.5 mg/kg/injection, schedule: Q01DX Z (im), vehicle: water) 111 % of control; (dose: 2.5 mg/kg/injection, schedule: Q01DX Z (ip), vehicle: water) 94 % of control and 106 % of control; (dose: 2.5 mg/kg/injection, schedule: Q01DX Z (sc), vehicle: water) 106 % of control; (dose: 2.5 mg/kg/injection, schedule: Q02DX Z (ip), vehicle: water) 109 % of control; (dose: 2.5 mg/kg/injection, schedule: Q03DX Z (ip), vehicle: water) 105 % of control; (dose: 4.0 mg/kg/injection, schedule: Q01DX Z (ip), vehicle: water) 94 % of control. Also, the T/C reads like this: (dose: 4.4 mg/kg/injection, schedule: Q01DX Z (ip), vehicle: carboxymethylcellulose (CMC)) 114 % of control and 117 % of control; (dose: 5.0 mg/kg/injection, schedule: Q01DX005 (iv), vehicle: water) 106 % of control; (dose: 5.0 mg/kg/injection, schedule: Q01DX Z (im), vehicle: water) 118 % of control; (dose: 5.0 mg/kg/injection, schedule: Q01DX Z (ip), vehicle: water) 103 % of control and 117 % of control and 124 % of control; (dose: 5.0 mg/kg/injection, schedule: Q01DX Z (oral), vehicle: water) 112 % of control and 115 % of control; (dose: 5.0 mg/kg/injection, schedule: Q01DX Z (sc), vehicle: water) 122 % of control. Moreover, the T/C (dose: 5.0 mg/kg/injection, schedule: Q02DX Z (ip), vehicle: water) was 95 % of control and 103 % of control; the T/C (dose: 5.0 mg/kg/injection, schedule: Q03DX Z (ip), vehicle: water) was 103 % of control and 106 % of control; the T/C (dose: 6.0 mg/kg/injection, schedule: Q01DX Z (ip), vehicle: water) is 109 % of control; the T/C (dose: 6.6 mg/kg/injection, schedule: Q01DX Z (ip), vehicle: carboxymethylcellulose (CMC)) was 117 % of control and 118 % of control; the T/C (dose: 6.6 mg/kg/injection, schedule: Q01DX Z (ip), vehicle: other) is 117 % of control; the T/C (dose: 7.5 mg/kg/injection, schedule: Q01DX Z (ip), vehicle: water) is 115 % of control. Further, the T/C (dose: 8.0 mg/kg/injection, schedule: Q01DX Z (ip), vehicle: water) is 97 % of control and 101 % of control; the T/C (dose: 9.0 mg/kg/injection, schedule: Q01DX Z (ip), vehicle: water) was 120 % of control; the T/C (dose: 10.0 mg/kg/injection, schedule: Q01DX005 (iv), vehicle: water) was 114 % of control; the T/C (dose: 10.0 mg/kg/injection, schedule: Q01DX Z (im), vehicle: water) is 97 % of control; the T/C (dose: 10.0 mg/kg/injection, schedule: Q01DX Z (ip), vehicle: water) was 117 % of control; the T/C (dose: 10.0 mg/kg/injection, schedule: Q01DX Z (sc), vehicle: water) was 100 % of control. In addition, the T/C runs as follows: (dose: 10.0 mg/kg/injection, schedule: Q02DX Z (ip), vehicle: water) 111 % of control and 112 % of control; (dose: 10.0 mg/kg/injection, schedule: Q02DX Z (oral), vehicle: water) 121 % of control; (dose: 12.0 mg/kg/injection, schedule: Q01DX Z (ip), vehicle: water) 114 % of control and 122 % of control; (dose: 12.5 mg/kg/injection, schedule: Q01DX Z (ip), vehicle: water) 120 % of control; (dose: 15.0 mg/kg/injection, schedule: Q01DX Z (ip), vehicle: other) 151 % of control; (dose: 15.0 mg/kg/injection, schedule: Q01DX Z (ip), vehicle: water) 95 % of control. Moreover, the T/C is 106 % of control (dose: 20.0 mg/kg/injection, schedule: Q01DX001 (ip), vehicle: water); 98 % of control and 104 % of control (dose: 20.0 mg/kg/injection, schedule: Q01DX Z (ip), vehicle: water); 123 % of control (dose: 20.0 mg/kg/injection, schedule: Q07DX003 (ip), vehicle: water); 92 % of control (dose: 22.0 mg/kg/injection, schedule: Q01DX Z (ip), vehicle: carboxymethylcellulose (CMC)); 114 % of control (dose: 30.0 mg/kg/injection, schedule: Q01DX001 (ip), vehicle: water); 120 % of control (dose: 30.0 mg/kg/injection, schedule: Q02DX Z (ip), vehicle: water). Moreover, the T/C runs as follows: (dose: 30.0 mg/kg/injection, schedule: Q02DX Z (oral), vehicle: water) 90 % of control; (dose: 30.0 mg/kg/injection, schedule: Q03DX Z (ip), vehicle: water) 124 % of control; (dose: 30.0 mg/kg/injection, schedule: Q07DX003 (ip), vehicle: water) 103 % of control; (dose: 33.0 mg/kg/injection, schedule: Q01DX Z (ip), vehicle: carboxymethylcellulose (CMC)) 114 % of control; (dose: 40.0 mg/kg/injection, schedule: Q01DX001 (ip), vehicle: water) 114 % of control; (dose: 40.0 mg/kg/injection, schedule: Q01DX Z (ip), vehicle: water) 98 % of control and 102 % of control. Besides, the T/C (dose: 40.0 mg/kg/injection, schedule: Q01DX Z (oral), vehicle: water) was 92 % of control; the T/C (dose: 40.0 mg/kg/injection, schedule: Q03DX Z (ip), vehicle: water) was 88 % of control; the T/C (dose: 80.0 mg/kg/injection, schedule: Q01DX001 (ip), vehicle: saline) is 117 % of control; the T/C (dose: 80.0 mg/kg/injection, schedule: Q07DX Z (ip), vehicle: saline) was 114 % of control; the T/C (dose: 160.0 mg/kg/injection, schedule: Q07DX Z (ip), vehicle: saline) was 105 % of control.

As to `CN(C)C(c1ccccc1)c1ccccc1`, the T/C (dose: 50.0 mg/kg/injection, schedule: Q01DX001 (ip), vehicle: saline) was 96 % of control; the T/C (dose: 100.0 mg/kg/injection, schedule: Q01DX001 (ip), vehicle: saline) is 94 % of control; the T/C (dose: 200.0 mg/kg/injection, schedule: Q01DX001 (ip), vehicle: saline) was 94 % of control; the T/C (dose: 400.0 mg/kg/injection, schedule: Q01DX001 (ip), vehicle: saline) is 94 % of control.

For the compound `CCCCC(=O)N(CC)C(=NCC)c1ccc(NC(=O)c2ccc(C(=O)Nc3ccc(C(=NCC)N(CC)C(=O)CCCC)cc3)cc2)cc1`, the T/C reads like this: (dose: 25.0 mg/kg/injection, schedule: Q01DX015 (ip), vehicle: methylcellulose (MC)) 90 % of control; (dose: 50.0 mg/kg/injection, schedule: Q01DX015 (ip), vehicle: methylcellulose (MC)) 90 % of control; (dose: 100.0 mg/kg/injection, schedule: Q01DX015 (ip), vehicle: methylcellulose (MC)) 96 % of control; (dose: 200.0 mg/kg/injection, schedule: Q01DX015 (ip), vehicle: methylcellulose (MC)) 94 % of control.

In the case of `Cc1nc(N)[nH]c(=O)c1N` (tested in a mixture with another compound), the T/C is, setting by setting: (dose: 100.0 mg/kg/injection, schedule: Q01DX001 (ip), vehicle: saline with Tween-80) 103 % of control; (dose: 200.0 mg/kg/injection, schedule: Q01DX001 (ip), vehicle: saline with Tween-80) 107 % of control; (dose: 400.0 mg/kg/injection, schedule: Q01DX001 (ip), vehicle: saline with Tween-80) 97 % of control.

For `Cn1c(O)c(N=Nc2ccccc2[N+](=O)[O-])c2ccccc21`, the T/C reads like this: (dose: 100.0 mg/kg/injection, schedule: Q01DX001 (ip), vehicle: other) 95 % of control; (dose: 200.0 mg/kg/injection, schedule: Q01DX001 (ip), vehicle: other) 90 % of control; (dose: 400.0 mg/kg/injection, schedule: Q01DX001 (ip), vehicle: other) 95 % of control.

Take `O=C(c1ccccc1)c1c[nH]c2c(O)ccc(O)c12`: the T/C by setting is: (dose: 12.5 mg/kg/injection, schedule: Q04DX002 (ip), vehicle: Klucel (hydroxypropylcellulose) (HPC)) 91 % of control; (dose: 25.0 mg/kg/injection, schedule: Q04DX002 (ip), vehicle: Klucel (hydroxypropylcellulose) (HPC)) 95 % of control; (dose: 50.0 mg/kg/injection, schedule: Q04DX002 (ip), vehicle: Klucel (hydroxypropylcellulose) (HPC)) 95 % of control.

Regarding `O=C(Nc1ccc(NC(=O)C(Cl)Cl)cc1)C(Cl)Cl`, the T/C (dose: 100.0 mg/kg/injection, schedule: Q04DX003 (ip), vehicle: Klucel (hydroxypropylcellulose) (HPC)) was 97 % of control; the T/C (dose: 200.0 mg/kg/injection, schedule: Q04DX003 (ip), vehicle: Klucel (hydroxypropylcellulose) (HPC)) is 101 % of control; the T/C (dose: 400.0 mg/kg/injection, schedule: Q04DX003 (ip), vehicle: Klucel (hydroxypropylcellulose) (HPC)) was 90 % of control.
